Data: PubChem BioAssay (NCI)
Several values for one entry are separate records, joined by “and”; a condition that tells them apart may be missing. Equal entries are not always repeated.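 Grown in 96-well plates, cells were treated for 48 hours with each compound at five concentrations. Insufficient inhibition: endpoint recorded as highest concentration tested. GI50: concentration for 50% inhibition of growth. Definition used: TGI = concentration required for complete inhibition of growth.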 Where a SMILES comes first, the peptide text is derived from it. The star is where a group is joined. Trt = c1ccc(C(c2ccccc2)(c2ccccc2)*)cc1; Cbz = O=C(OCc1ccccc1)*

Tests used:
Assay in all cases: NCI anticancer screen, dose series, 48 h
LOX IMVI melanoma = test system: LOX IMVI melanoma
SF-539 CNS = test system: SF-539 CNS
HL-60(TB) leukemia = test system: HL-60(TB) leukemia
HT29 colon = test system: HT29 colon
SF-268 CNS = test system: SF-268 CNS
RPMI-8226 leukemia = test system: RPMI-8226 leukemia
CAKI-1 renal = test system: CAKI-1 renal
HCT-116 colon = test system: HCT-116 colon
SNB-75 CNS = test system: SNB-75 CNS
SNB-19 CNS = test system: SNB-19 CNS

Row | SMILES | GI50 (LOX IMVI melanoma) | TGI (LOX IMVI melanoma) | GI50 (SF-539 CNS) | TGI (SF-539 CNS) | GI50 (HL-60(TB) leukemia) | TGI (HL-60(TB) leukemia) | GI50 (HT29 colon) | TGI (HT29 colon) | GI50 (SF-268 CNS) | TGI (SF-268 CNS) | GI50 (RPMI-8226 leukemia) | TGI (RPMI-8226 leukemia) | GI50 (CAKI-1 renal) | TGI (CAKI-1 renal) | GI50 (HCT-116 colon) | TGI (HCT-116 colon) | GI50 (SNB-75 CNS) | TGI (SNB-75 CNS) | GI50 (SNB-19 CNS) | TGI (SNB-19 CNS)
1 | O=C1NC(=NCc2ccccc2Cl)S/C1=C\c1ccc2ncccc2c1 | 8.86 µM | > 25 µM | 3.59 µM | > 25 µM | 10.1 µM | > 25 µM | > 25 µM | > 25 µM | 18.9 µM | > 25 µM | 17 µM | > 25 µM | 4.83 µM | > 19.5 µM | 3.98 µM | > 25 µM | 0.785 µM | > 21.8 µM | 13.2 µM | > 25 µM
2 | COC(=O)C(=O)C(C(=O)OC)C(=O)C(=O)Nc1c(C)cccc1C (stereo not drawn) | – | > 100 µM | – | > 100 µM | – | > 100 µM | – | > 100 µM | – | > 100 µM | – | > 100 µM | – | > 100 µM | – | > 100 µM | – | > 100 µM | – | > 100 µM
3 | NS(=O)(=O)c1ccc(Nc2cc(-c3ccc(O)c(F)c3)[nH]n2)cc1 | > 25 µM | > 25 µM | 13.5 µM | > 25 µM | > 25 µM | > 25 µM | > 25 µM | > 25 µM | 10.3 µM | > 25 µM | > 25 µM | > 25 µM | > 25 µM | > 25 µM | > 25 µM | > 25 µM | > 25 µM | > 25 µM | > 25 µM | > 25 µM
4 | COc1cc2c(c(OC)c1OC)-c1ccc(NN(C(=O)c3ccccc3)C(=O)c3ccccc3)c(=O)cc1[C@@H](NC(C)=O)CC2 (tested in a mixture with another compound) | 4.24 µM | 16.5 µM | 3.08 µM | 10.5 µM | 2.1 µM | 14.7 µM | 2.93 µM | 11.1 µM | 4.61 µM | > 100 µM | 4.72 µM | 82.5 µM | 4.62 µM | 47.1 µM | 2.95 µM | 8.88 µM | 5.08 µM | > 100 µM | 6.7 µM | > 100 µM
5 | COc1cc2cc(Oc3ccc(NC(=O)Nc4cc(C(F)(F)F)cc(C(F)(F)F)c4)cc3)c(C)nc2cc1OCCN1CCOCC1 | 1.46 µM | 5.09 µM | 1.54 µM | 5.25 µM | 1.62 µM | 4.93 µM | 1.75 µM | 7.14 µM | 1.98 µM | 8.06 µM | 0.84 µM | 2.12 µM | 1.47 µM | 5.68 µM | 1.42 µM | 5.33 µM | 1.02 µM | 4.48 µM | 1.88 µM | 7.42 µM
6 | COc1cc(/C=C/C(=O)c2cccc(-n3cc(-c4cc(OC)c(OC)c(OC)c4)[nH]c3=O)c2)cc(OC)c1OC | 1.23 µM | 3.48 µM | 3.12 µM | 18 µM | 0.922 µM | 6.39 µM | 1.7 µM | 7.03 µM | 2.2 µM | 7.47 µM | 0.238 µM | 0.733 µM | 2.89 µM | 9.91 µM | 0.749 µM | 2.13 µM | 5.13 µM | 21 µM | 4.07 µM | 15.8 µM
7 | O=C1C(c2ccccc2)=C(c2ccccc2)C(c2ccc(Cc3ccc(C4=C(c5ccccc5)C(=O)C(c5ccccc5)=C4c4ccccc4)cc3)cc2)=C1c1ccccc1 | – | > 100 µM | – | > 100 µM | – | > 100 µM | – | > 100 µM | – | > 100 µM | – | > 100 µM | – | > 100 µM | – | > 100 µM | – | > 100 µM | – | > 100 µM
8 | COc1cc(C2c3cc4c(cc3[C@@H](NCCN(C)C)C3COC(=O)[C@H]23)OCO4)cc(OC)c1O (stereo partly drawn) | 0.0366 µM and 0.119 µM | 0.69 µM and 1.29 µM | – | 0.207 µM and 0.974 µM | – | 0.124 µM and 0.121 µM | 1.36 µM | 5 µM | 0.137 µM and 0.316 µM | 1.49 µM and 4.29 µM | – | > 100 µM and 12 µM | 0.306 µM and 0.652 µM | 3.46 µM and 4.21 µM | 0.272 µM and 0.715 µM | 2.18 µM and 3.79 µM | – | 0.674 µM | – | 5.18 µM and 9.62 µM
9 | CC(C)(CN1C(=O)C(Cl)=C(Cl)C1=O)CN1C(=O)C(Cl)=C(Cl)C1=O | – | 33.5 µM | – | 38.8 µM | – | 2.84 µM | – | 42 µM | – | 41.5 µM | – | 4.96 µM | – | 15.9 µM | – | 27.9 µM | – | 50.7 µM | – | 55 µM
10 | Clc1nccc2c(-c3csc(-c4c[nH]c5ccc(Br)cc45)n3)c[nH]c12 | 1.63 µM | 3.25 µM | 1.87 µM | 6.14 µM | 2.64 µM | 14.1 µM | 2.66 µM | 8.22 µM | 4.06 µM | 18 µM | 4.03 µM | 39 µM | 1.96 µM | 8.04 µM | 2.35 µM | 10.5 µM | 2.37 µM | 10.9 µM | 3.25 µM | 11.6 µM
11 | COC(=O)C(CO)NC(=O)C(CSC(c1ccccc1)(c1ccccc1)c1ccccc1)NC(=O)OCc1ccccc1 (stereo not drawn) (Cbz-Cys(Trt)-Ser-OMe; configuration not given here) | – | 30.1 µM | – | 26.3 µM | – | > 43.6 µM | – | 33.3 µM | – | 44.9 µM | – | 5.55 µM | – | 39.4 µM | – | 42.1 µM | – | 33.7 µM | – | 50.7 µM
12 | COc1ccc2nc3cc(Cl)ccc3c(NCCCNCCO)c2c1 | 0.294 µM | 1.12 µM | 0.508 µM | 2.35 µM | 0.613 µM | 2.64 µM | 0.292 µM | 1.41 µM | 0.577 µM | 2.66 µM | 0.497 µM | 2.74 µM | 0.816 µM | 3.55 µM | 0.326 µM | 1.43 µM | 0.744 µM | 2.26 µM | 0.5 µM | 3.79 µM
13 | Cc1nc(N)nc(N)c1CCCCc1ccc(N)cc1 | – | 14.8 µM | – | 21.7 µM | – | 19.4 µM | – | 15.1 µM | – | 17.3 µM | – | 26.5 µM | – | 39.5 µM | – | 13.4 µM | – | 29.3 µM | – | 20.4 µM
14 | Cc1ccc(CNc2ccc(Br)cc2)cc1 | – | > 100 µM | – | > 100 µM | – | > 100 µM | – | 93.4 µM | – | > 100 µM | – | 17.5 µM | – | > 100 µM | – | > 100 µM | – | > 100 µM | – | > 100 µM
15 | COc1ccc(-c2cc(-c3ccc(Nc4nc(Nc5ccccc5)nc(Nc5ccc(Cl)cc5)n4)cc3)nc(N)n2)cc1 | 11.1 µM | 39 µM | 10.3 µM | 25.8 µM | 2.31 µM | 17.9 µM | 7.56 µM | 21.8 µM | 13.3 µM | 46.8 µM | 5.15 µM | 20.5 µM | 5.4 µM | 23.3 µM | 6.74 µM | 16.8 µM | 6.02 µM | 48.1 µM | 9.03 µM | 24.6 µM
16 | O=[N+]([O-])c1ccc(C2=Nc3ccccc3S(=O)C(c3ccccc3)C2)cc1 (stereo not drawn) | – | 29.3 µM | – | 45 µM | – | 39.1 µM | – | 42 µM | – | > 100 µM | – | 29.6 µM | – | 37.4 µM | – | – | – | 53.3 µM | – | 68 µM
17 | CCCCN(CCCC)C(=O)[C@H](CC)[C@@H]1CC[C@@H](C)[C@@H]([C@H](C)[C@@H](O)[C@@H](C)C(=O)[C@H](CC)C2O[C@]3(C=C[C@@H](O)[C@]4(CC[C@@](C)([C@H]5CC[C@](O)(CC)[C@H](C)O5)O4)O3)[C@H](C)C[C@@H]2C)O1 (stereo partly drawn) | 1.43 µM | 2.97 µM | 1.88 µM | 4.2 µM | 2.35 µM | 5.7 µM | 2.88 µM | 12.4 µM | 3.17 µM | > 100 µM | 1.79 µM | 5.85 µM | 1.91 µM | 9.02 µM | 2.39 µM | 6.9 µM | 1.78 µM | 26.9 µM | 3.46 µM | > 100 µM
18 | COc1ccc2c(c1)OC(N)=C(C#N)C2c1cc(OC)c(OC)c(OC)c1 (stereo not drawn) | 0.0346 µM | > 100 µM | 0.0316 µM | 31.8 µM | 0.0256 µM | 0.068 µM | 0.0328 µM | 0.172 µM | 0.0642 µM | > 100 µM | 0.0389 µM | > 100 µM | 0.107 µM | > 100 µM | 0.0331 µM | > 37.5 µM | 0.0394 µM | 45.9 µM | 0.0864 µM | > 100 µM
19 | CC1CC2C3CCC4=CC(=O)C=CC4(C)C3(F)C(O)CC2(C)C1(O)C(=O)COP(=O)(O)O (stereo not drawn) | > 500 µM | > 500 µM | > 500 µM | > 500 µM | > 500 µM | > 500 µM | > 500 µM | > 500 µM | > 500 µM | > 500 µM | 16.6 µM | > 500 µM | > 500 µM | > 500 µM | > 500 µM | > 500 µM | > 500 µM | > 500 µM | > 500 µM | > 500 µM
20 | C/C(=N\O)c1ccc2ccc3ccccc3c2c1 | – | 60.6 µM | – | 38.8 µM | – | 66.6 µM | – | > 100 µM | – | > 100 µM | – | > 100 µM | – | > 100 µM | – | > 100 µM | – | > 100 µM | – | > 100 µM
21 | CC(C)(C)c1cc(CCC(=O)Nc2ccc(Cl)cc2)[nH]c(=S)n1 | – | > 100 µM | – | > 100 µM | – | > 100 µM | – | > 100 µM | – | > 100 µM | – | > 100 µM | – | > 100 µM | – | – | – | > 100 µM | – | > 100 µM
